Counter-ions that a name gives are not always drawn. Like-named read-outs stand apart in the source and are kept apart here.

Results on 39 compounds are retold here after US20260109709A1 (MIRATI THERAPEUTICS, INC., priority 2021, published 2026).

The target of the test is T1, PRMT5/MEP50 complex (Homo sapiens, UniProt O14744).
T1 construct: purchased Reaction Biology Corporation
In words: PRMT5:MEP50 FlashPlate Assay (histone H4 peptide methylation). Format: biochemical. Particulars: 40 nM H4 (1-15) peptide, 1 μM SAM. On the procedure:
The PRMT5 inhibitory activity of compounds of the present invention was determined using a PRMT5: MEP50 FlashPlate Assay and a PRMT5: MEP50 HotSpot Assay (Reaction Biology Corporation).
The assay uses purified human, PRMT5 enzyme to convert S-adenosyl-L-[methyl-3H]methionine plus histone H4 L-arginine to S-adenosyl-L-homocysteine plus histone H4 [methyl-3H]-L-arginine. The assay was carried out using Streptavidin-coated FlashPlates (Perkin Elmer), which contained a scintillant embedded in the plastic of the plate. The histone H4 peptide substrate was conjugated with biotin, which binds to the streptavidin-coated well of the plate, placing the H4 peptide in close proximity to the side well and the scintillant. The transfer of the tritiated methyl group from S-adenosyl-L-[methyl-3H]methionine to the bound histone H4 peptide generated a radiolabeled histone H4, which was quantitated by measuring in a scintillation counter to determine the activity of PRMT5 enzyme in the presence and absence of compound. […] Briefly, compounds of the present invention were solubilized in 100% DMSO at a highest concentration of 10 mM. […] Control samples lacking compound, PRMT5/MEP50 complex or various reaction components also were prepared and processed in parallel with compound test samples. SAH was used as a positive control for assay validation. To measure PRMT5 inhibitory activity, 3 nM PRMT5/MEP50 complex (Reaction Biology Corporation) was preincubated with test compound in assay buffer containing 40 nM histone H4 peptide (amino acids 1-15)-Biotin conjugate for 20 min at room temperature. The enzymatic reaction was initiated by adding 1 μM tritiated S-adenosyl methionine (final concentration) and the reaction is allowed to proceed for 20 min. The reaction was stopped and the amount of bound, tritiated H4 peptide in each sample was determined using a scintillation counter.

T1 sequence (O14744 2-637 limits assumed): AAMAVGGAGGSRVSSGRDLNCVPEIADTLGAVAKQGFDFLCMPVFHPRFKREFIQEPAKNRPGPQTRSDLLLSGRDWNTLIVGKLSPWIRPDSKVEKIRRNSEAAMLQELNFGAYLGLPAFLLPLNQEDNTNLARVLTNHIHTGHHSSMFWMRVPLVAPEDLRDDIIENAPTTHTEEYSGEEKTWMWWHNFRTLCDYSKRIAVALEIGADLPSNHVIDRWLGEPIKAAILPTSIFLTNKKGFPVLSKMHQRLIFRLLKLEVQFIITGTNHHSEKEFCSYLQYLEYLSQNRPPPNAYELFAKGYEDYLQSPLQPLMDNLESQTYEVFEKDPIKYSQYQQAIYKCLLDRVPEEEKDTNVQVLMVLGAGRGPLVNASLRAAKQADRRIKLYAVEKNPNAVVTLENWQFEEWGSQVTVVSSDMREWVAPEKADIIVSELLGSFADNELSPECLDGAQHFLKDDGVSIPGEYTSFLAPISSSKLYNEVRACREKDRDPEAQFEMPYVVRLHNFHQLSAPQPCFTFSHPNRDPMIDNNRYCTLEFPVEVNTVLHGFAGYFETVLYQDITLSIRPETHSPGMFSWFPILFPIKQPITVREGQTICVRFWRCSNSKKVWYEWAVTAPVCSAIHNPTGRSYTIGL
T1 sequence (Q9BQA1 2-342 partner limits assumed): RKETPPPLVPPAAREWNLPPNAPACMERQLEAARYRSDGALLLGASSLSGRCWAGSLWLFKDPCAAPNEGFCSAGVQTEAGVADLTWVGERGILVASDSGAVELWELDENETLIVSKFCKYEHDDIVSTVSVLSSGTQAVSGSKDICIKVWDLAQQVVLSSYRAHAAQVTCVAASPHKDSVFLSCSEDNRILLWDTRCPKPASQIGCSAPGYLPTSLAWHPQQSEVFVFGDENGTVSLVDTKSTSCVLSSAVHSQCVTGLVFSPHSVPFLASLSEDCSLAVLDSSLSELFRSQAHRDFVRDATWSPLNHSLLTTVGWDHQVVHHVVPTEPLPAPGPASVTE

For the compound `Cn1c(N)nc2c(-c3ccncc3)cccc21` [Example 1-66, 1-methyl-4-(pyridin-4-yl)-1H-benzo[d]imidazol-2-amine], the concentration for half-maximal inhibition (IC50) (IC50 + 2 μM MTA, plus 2 μM MTA) is above 300 µM. On to `Cn1c(N)nc2cc(Cc3ccccn3)cc(C(F)F)c21` [Example 4-2, 7-(difluoromethyl)-1-methyl-5-(2-pyridylmethyl)benzimidazol-2-amine], for which the 50% inhibitory concentration (IC50) runs as follows: (IC50 + 2 μM MTA, plus 2 μM MTA) 122 µM; (absence of MTA, read-out: IC50) above 300 µM. In the case of `Cn1ccc(-c2cccc3c2nc(N)n3C)n1` [Example 1-68, 1-methyl-4-(1-methyl-1H-pyrazol-3-yl)-1H-benzo[d]imidazol-2-amine], the IC50 (IC50 + 2 μM MTA, plus 2 μM MTA) was above 300 µM. On to `Cn1c(N)nc2c(-c3cnoc3)ccc(Cl)c21` [Example 2-7, 7-chloro-4-isoxazol-4-yl-1-methyl-benzimidazol-2-amine], for which the IC50 is above 300 µM (IC50 + 2 μM MTA, plus 2 μM MTA) and above 300 µM (absence of MTA, read-out: IC50). With `Cn1c(N)nc2c(-c3cncnc3)cccc21` [Example 1-62, 1-methyl-4-(pyrimidin-5-yl)-1H-benzo[d]imidazol-2-amine], the IC50 (IC50 + 2 μM MTA, plus 2 μM MTA) is above 300 µM. The same measure, in the same setting: the result for `Cn1c(N)nc2cc(-c3ccnnc3)ccc21` [Example 1-73, 1-methyl-5-(pyridazin-4-yl)-1H-benzo[d]imidazol-2-amine] reads above 300 µM; that for `Cc1nnc(CN(C)c2cccc3c2nc(N)n3C)n1C` [Example 1-50, N4-((4,5-dimethyl-4H-1,2,4-triazol-3-yl)methyl)-N4,1-dimethyl-1H-benzo[d]imidazole-2,4-diamine], above 300 µM; that for `Cn1c(N)nc2c(NCCN3CC4CC4C3)cccc21` (stereo not shown) [Example 1-8, N4-(2-(3-azabicyclo[3.1.0]hexan-3-yl)ethyl)-1-methyl-1H-benzo[d]imidazole-2,4-diamine], above 300 µM. Still for that read-out and setting: the result for `Cn1c(N)nc2cc(Nc3cnccn3)ccc21` [Example 1-82, 1-methyl-N5-(pyrazin-2-yl)-1H-benzo[d]imidazole-2,5-diamine] reads 50.7 µM; that for `Cc1cc(-c2cccc3c2nc(N)n3C)cnc1O` [Example 1-70, 5-(2-amino-1-methyl-1H-benzo[d]imidazol-4-yl)-3-methylpyridin-2-ol], above 300 µM.

For `Cn1c(N)nc2cc(Cc3ccncc3)cc(C#N)c21` [Example 3-4, 2-amino-3-methyl-6-(4-pyridylmethyl)benzimidazole-4-carbonitrile], the half-inhibitory concentration (IC50) runs as follows: (IC50 + 2 μM MTA, plus 2 μM MTA) above 300 µM; (absence of MTA, read-out: IC50) above 300 µM. Take `Cn1nccc1-c1cccc2c1nc(N)n2C` [Example 1-67, 1-methyl-4-(1-methyl-1H-pyrazol-5-yl)-1H-benzo[d]imidazol-2-amine]: under “IC50 + 2 μM MTA, plus 2 μM MTA”, the IC50 is above 300 µM. As to `CCn1c(N)nc2ncccc21` [Example 5-1, 1-ethyl-1H-imidazo[4,5-b]pyridin-2-amine hydrochloride], the 50% inhibitory concentration (IC50) runs as follows: (IC50 + 2 μM MTA, plus 2 μM MTA) above 300 µM; (absence of MTA, read-out: IC50) above 300 µM. Turning to `CN1CCOC(Cc2ccc(Cl)c3c2nc(N)n3C)C1` (stereo not shown) [Example 2-6, 7-chloro-1-methyl-4-[(4-methylmorpholin-2-yl)methyl]benzimidazol-2-amine], the IC50 (IC50 + 2 μM MTA, plus 2 μM MTA) is above 300 µM and the IC50 (absence of MTA, read-out: IC50) is above 300 µM. Regarding `Cn1c(N)nc2c(Nc3cnccn3)cccc21` [Example 1-76, 1-methyl-N4-(pyrazin-2-yl)-1H-benzo[d]imidazole-2,4-diamine], the IC50 (IC50 + 2 μM MTA, plus 2 μM MTA) is above 300 µM. On the same count and under the same terms, to `Cn1cc(-c2cccc3c2nc(N)n3C)ccc1=O` [Example 1-71, 5-(2-amino-1-methyl-1H-benzo[d]imidazol-4-yl)-1-methylpyridin-2(1H)-one] belongs above 300 µM; to `Cn1c(N)nc2c(Nc3cnn(CCN4CCCC4=O)c3)cccc21` [Example 1-13, 1-(2-(4-((2-amino-1-methyl-1H-benzo[d]imidazol-4-yl)amino)-1H-pyrazol-1-yl)ethyl)pyrrolidin-2-one], above 300 µM.

As to `CCc1cc(-c2cnn(C)c2-c2ccccc2C#N)c2nc(N)n(C)c2c1` [Example 6-3, 2-[4-(2-amino-6-ethyl-1-methyl-benzimidazol-4-yl)-2-methyl-pyrazol-3-yl]benzonitrile hydrochloride], the half-inhibitory concentration (IC50) (IC50 + 2 μM MTA, plus 2 μM MTA) worked out at 17.8 µM and the IC50 (absence of MTA, read-out: IC50) worked out at 198 µM. `Cn1c(N)nc2c(-c3cccnc3)cccc21` [Example 1-64, 1-methyl-4-(pyridin-3-yl)-1H-benzo[d]imidazol-2-amine]: the 50% inhibitory concentration (IC50) (IC50 + 2 μM MTA, plus 2 μM MTA) was above 300 µM. `Cc1nn(C(C)C)cc1Nc1cccc2c1nc(N)n2C` [Example 1-74, N4-(1-isopropyl-3-methyl-1H-pyrazol-4-yl)-1-methyl-1H-benzo[d]imidazole-2,4-diamine]: the IC50 (IC50 + 2 μM MTA, plus 2 μM MTA) was above 300 µM. With `Cn1c(N)nc2cc(-c3occc3C#N)ccc21` [Example 1-61, 2-(2-amino-1-methyl-1H-benzo[d]imidazol-5-yl)furan-3-carbonitrile], the IC50 (IC50 + 2 μM MTA, plus 2 μM MTA) turned out to be 34.5 µM. On to `Cn1c(N)nc2cc(-c3cncnc3)ccc21` [Example 1-52, 1-methyl-5-(pyrimidin-5-yl)-1H-benzo[d]imidazol-2-amine], for which the half-maximal inhibitory concentration (IC50) (IC50 + 2 μM MTA, plus 2 μM MTA) is above 300 µM. Take `CCn1cnnc1CNc1cc(C#N)c2c(c1)nc(N)n2C` [Example 3-24, 2-amino-5-(((4-ethyl-4H-1,2,4-triazol-3-yl)methyl)amino)-1-methyl-1H-benzo[d]imidazole-7-carbonitrile]: the half-inhibitory concentration (IC50) runs as follows: (IC50 + 2 μM MTA, plus 2 μM MTA) 0.73 µM; (absence of MTA, read-out: IC50) 280 µM. Take `Cn1c(N)nc2cc(-c3cccnc3)ccc21` [Example 1-54, 1-methyl-5-(pyridin-3-yl)-1H-benzo[d]imidazol-2-amine]: the IC50 (IC50 + 2 μM MTA, plus 2 μM MTA) was above 300 µM. Turning to `Cn1c(N)nc2c(-c3ccnnc3)cccc21` [Example 1-72], for the setting “IC50 + 2 μM MTA, plus 2 μM MTA”, the 50% inhibitory concentration (IC50) is above 300 µM. Still for that read-out and setting: the result for `Cn1c(N)nc2c(Nc3ncccn3)cccc21` [Example 1-78, 1-methyl-N4-(pyrimidin-2-yl)-1H-benzo[d]imidazole-2,4-diamine] reads above 300 µM. Still for that read-out and setting: to `Cn1c(N)nc2c(NCc3cn4cccc(F)c4n3)cccc21` [Example 1-75, N4-((8-fluoroimidazo[1,2-a]pyridin-2-yl)methyl)-1-methyl-1H-benzo[d]imidazole-2,4-diamine] belongs 180 µM; to `Cn1c(N)nc2c(Nc3ccncc3)cccc21` [Example 1-31, 1-methyl-N4-(pyridin-4-yl)-1H-benzo[d]imidazole-2,4-diamine], above 300 µM.

Consider `CC(=O)N(Cc1cc(C#N)c2c(c1)nc(N)n2C)c1ccc2ccccc2c1C#N` [Example 3-25, N-[(2-amino-7-cyano-1-methyl-benzimidazol-5-yl)methyl]-N-(1-cyano-2-naphthyl) acetamide], for which the IC50 runs as follows: (IC50 + 2 μM MTA, plus 2 μM MTA) 0.006 µM; (absence of MTA, read-out: IC50) 2.48 µM. With `Cn1c(N)nc2c(Nc3ccncn3)cccc21` [Example 1-32, 1-methyl-N4-(pyrimidin-4-yl)-1H-benzo[d]imidazole-2,4-diamine], the IC50 (IC50 + 2 μM MTA, plus 2 μM MTA) was above 300 µM. With `CN(Cc1nnc2n1CCOC2)c1cccc2c1nc(N)n2C` [Example 1-51, N4-((5,6-dihydro-8H-[1,2,4]triazolo[3,4-c][1,4]oxazin-3-yl)methyl)-N4,1-dimethyl-1H-benzo[d]imidazole-2,4-diamine], for the setting “IC50 + 2 μM MTA, plus 2 μM MTA”, the IC50 was above 300 µM. The same measure, in the same setting: to `CCO[C@@H]1COC[C@H]1Nc1cccc2c1nc(N)n2C` (racemic) [Example 1-7, rac-N4-((3R,4S)-4-ethoxytetrahydrofuran-3-yl)-1-methyl-1H-benzo[d]imidazole-2,4-diamine] belongs above 300 µM.

With `Cn1cc(-c2ccc(Cl)c3c2nc(N)n3C)cn1` [Example 2-1, 7-chloro-1-methyl-4-(1-methylpyrazol-4-yl)benzimidazol-2-amine hydrochloride], the IC50 by setting is: (IC50 + 2 μM MTA, plus 2 μM MTA) above 300 µM; (absence of MTA, read-out: IC50) above 300 µM. Regarding `Cn1c(N)nc2cc(C(F)(F)c3cccnc3)cc(C#N)c21` [Example 3-17, 2-amino-6-[difluoro (3-pyridyl)methyl]-3-methyl-benzimidazole-4-carbonitrile], the half-maximal inhibitory concentration (IC50) by setting is: (IC50 + 2 μM MTA, plus 2 μM MTA) above 300 µM; (absence of MTA, read-out: IC50) above 300 µM.

For `Cn1nnc(CNc2cc(C#N)c3c(c2)nc(N)n3C)c1C(F)F` [Example 3-23, 2-amino-5-(((5-(difluoromethyl)-1-methyl-1H-1,2,3-triazol-4-yl)methyl)amino)-1-methyl-1H-benzo[d]imidazole-7-carbonitrile], the concentration for half-maximal inhibition (IC50) (IC50 + 2 μM MTA, plus 2 μM MTA) amounted to 0.43 µM and the half-inhibitory concentration (IC50) (absence of MTA, read-out: IC50) worked out at 155 µM. Consider `Cc1ncccc1-c1ccc2c(c1)nc(N)n2C` [Example 1-58, 1-methyl-5-(2-methylpyridin-3-yl)-1H-benzo[d]imidazol-2-amine], for which the IC50 (IC50 + 2 μM MTA, plus 2 μM MTA) is above 300 µM. On the same count and under the same terms, the result for `Cn1c(N)nc2cc(-c3cn[nH]c3)ccc21` [Example 1-60, 1-methyl-5-(1H-pyrazol-4-yl)-1H-benzo[d]imidazol-2-amine] reads above 300 µM. As to `CN1C(=O)CCC1c1ccc(Cl)c2c1nc(N)n2C` (stereo not shown) [Example 2-5, 5-(2-amino-7-chloro-1-methyl-benzimidazol-4-yl)-1-methyl-pyrrolidin-2-one hydrochloride], the 50% inhibitory concentration (IC50) by setting is: (IC50 + 2 μM MTA, plus 2 μM MTA) above 300 µM; (absence of MTA, read-out: IC50) above 300 µM. Regarding `Cn1c(N)nc2cc(Oc3cccnc3)cnc21` [Example 5-3, 3-methyl-6-(3-pyridyloxy) imidazo[4,5-b]pyridin-2-amine], the IC50 (IC50 + 2 μM MTA, plus 2 μM MTA) is above 300 µM and the half-maximal inhibitory concentration (IC50) (absence of MTA, read-out: IC50) was above 300 µM.

By IC50 is commonly meant the point on the concentration scale where inhibition reaches its midpoint.
